Reference: patent US20120121591A1 (priority 2009, published 2012)
Where two headings read alike, the source gives them in different places.

Columns and labels:
Format in all cases: cell-based
hKv1.3 = hKv1.3 (Homo sapiens, UniProt P22001); test: cell-based
[1] = system: IFN-g secretion from T cells in human whole blood
[2] = system: IL-2 secretion from T cells in human whole blood; details: read-out: WB (IL-2) IC50 (nM, Avg)
[3] = read-out: WB (IFNg) IC5- (nM, Avg)

Chain of hKv1.3 (P22001 whole entry): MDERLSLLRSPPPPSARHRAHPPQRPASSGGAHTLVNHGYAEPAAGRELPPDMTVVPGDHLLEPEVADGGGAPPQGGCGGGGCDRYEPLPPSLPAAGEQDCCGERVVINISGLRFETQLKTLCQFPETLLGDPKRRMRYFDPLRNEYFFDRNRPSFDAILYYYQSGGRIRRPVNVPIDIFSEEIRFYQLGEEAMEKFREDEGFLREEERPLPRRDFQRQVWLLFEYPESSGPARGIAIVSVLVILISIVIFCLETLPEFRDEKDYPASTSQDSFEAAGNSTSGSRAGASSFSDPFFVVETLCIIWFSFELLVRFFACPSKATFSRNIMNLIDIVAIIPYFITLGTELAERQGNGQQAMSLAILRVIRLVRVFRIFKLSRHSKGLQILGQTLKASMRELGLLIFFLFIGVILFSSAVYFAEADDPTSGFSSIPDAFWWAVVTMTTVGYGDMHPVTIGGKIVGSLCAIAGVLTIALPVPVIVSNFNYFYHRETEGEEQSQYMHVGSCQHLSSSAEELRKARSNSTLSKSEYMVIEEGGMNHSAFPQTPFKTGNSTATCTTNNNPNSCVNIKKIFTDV

| Molecule | IC50 (hKv1.3; Kv1.3 (IWQ) IC50 (nM, Avg)) [nM] | other results |
| --- | --- | --- |
| CC[C@H](C)[C@@H]1NC(=O)[C@@H](NC(=O)[C@H](CO)NC(=O)[C@@H](N)CCCNC(=N)N)CSSC[C@@H](C(=O)O)NC(=O)[C@H](Cc2cccc3ccccc23)NC(=O)CNC(=O)[C@@H]2CSSC[C@@H]3NC(=O)[C@H](CCC(N)=O)NC(=O)[C@H](Cc4ccccc4)NC(=O)[C@H](C)NC(=O)[C@H]([C@@H](C)O)NC(=O)[C@H](CSSC[C@H](NC(=O)[C@H](Cc4ccccc4)NC(=O)[C@H](CO)NC(=O)[C@H](CC(C)C)NC(=O)[C@H](CCCNC(=N)N)NC(=O)[C@H](Cc4ccc(O)cc4)NC(=O)[C@H](CCCCN)NC(=O)[C@H](CCSC)NC(=O)[C@H](CO)NC(=O)[C@H](Cc4cnc[nH]4)NC(=O)[C@H](CCCCN)NC3=O)C(=O)N[C@@H](CCCNC(=N)N)C(=O)N[C@@H](CCCCN)C(=O)N[C@@H]([C@@H](C)O)C(=O)N2)NC(=O)[C@H](CCCNC(=N)N)NC(=O)[C@H](CO)NC(=O)[C@H](CCCCN)NC(=O)[C@@H]2CCCN2C(=O)[C@H]([C@@H](C)CC)NC(=O)[C@H]([C@@H](C)O)NC(=O)[C@H](CC(=O)O)NC1=O [[1-Nal34]ShK] | 0.077 | – |
| CC[C@H](C)[C@@H]1NC(=O)[C@@H](NC(=O)[C@H](CO)NC(=O)[C@@H](N)CCCNC(=N)N)CSSC[C@@H](C(=O)O)NC(=O)[C@H]([C@@H](C)O)NC(=O)CNC(=O)[C@@H]2CSSC[C@@H]3NC(=O)[C@H](CCC(N)=O)NC(=O)[C@H](Cc4ccccc4)NC(=O)[C@H](C)NC(=O)[C@H]([C@@H](C)O)NC(=O)[C@H](CSSC[C@H](NC(=O)[C@H](Cc4ccccc4)NC(=O)[C@H](CO)NC(=O)[C@H](CC(C)C)NC(=O)[C@H](CCCNC(=N)N)NC(=O)[C@H](Cc4ccc(O)cc4)NC(=O)[C@H](CCCCN)NC(=O)[C@H](CCSC)NC(=O)[C@H](CO)NC(=O)[C@H](Cc4c[nH]cn4)NC(=O)[C@H](CCCCN)NC3=O)C(=O)N[C@@H](CCCNC(=N)N)C(=O)N[C@@H](CCCCN)C(=O)N[C@@H]([C@@H](C)O)C(=O)N2)NC(=O)[C@H](CCCNC(=N)N)NC(=O)[C@H](CO)NC(=O)[C@H](CCCCN)NC(=O)[C@H](CCC(=O)O)NC(=O)[C@H]([C@@H](C)CC)NC(=O)[C@H]([C@@H](C)O)NC(=O)[C@H](CC(=O)O)NC1=O [[Glu8]ShK] | 0.097 | IC50 [1, 3]: 0.238 nM |
| CC[C@H](C)[C@@H]1NC(=O)[C@@H](NC(=O)[C@H](CO)NC(=O)[C@@H](N)CCCNC(=N)N)CSSC[C@@H](C(N)=O)NC(=O)[C@H]([C@@H](C)O)NC(=O)CNC(=O)[C@@H]2CSSC[C@@H]3NC(=O)[C@H](CCCCN)NC(=O)[C@H](Cc4ccccc4)NC(=O)[C@H](C)NC(=O)[C@H]([C@@H](C)O)NC(=O)[C@H](CSSC[C@H](NC(=O)[C@H](Cc4ccccc4)NC(=O)[C@H](CO)NC(=O)[C@H](CC(C)C)NC(=O)[C@H](CCCNC(=N)N)NC(=O)[C@H](Cc4ccc(O)cc4)NC(=O)[C@H](CCCCN)NC(=O)[C@H](CC(N)=O)NC(=O)[C@H](CO)NC(=O)[C@H](Cc4c[nH]cn4)NC(=O)[C@H](CCCCN)NC3=O)C(=O)N[C@@H](CCCNC(=N)N)C(=O)N[C@@H](CCCCN)C(=O)N[C@@H]([C@@H](C)O)C(=O)N2)NC(=O)[C@H](CCCNC(=N)N)NC(=O)[C@H](CO)NC(=O)[C@H](CCCCN)NC(=O)[C@@H]2CCCN2C(=O)[C@H]([C@@H](C)CC)NC(=O)[C@H]([C@@H](C)O)NC(=O)[C@H](CC(=O)O)NC1=O [[Lys16, Asn21]ShK-amide] | 0.167 | IC50 [2]: 3.24 nM |
| CC[C@H](C)[C@@H]1NC(=O)[C@@H](NC(=O)[C@H](CO)NC(=O)[C@@H](N)CCCNC(=N)N)CSSC[C@@H](C(=O)O)NC(=O)[C@H]([C@@H](C)O)NC(=O)CNC(=O)[C@@H]2CSSC[C@@H]3NC(=O)[C@H](CCC(N)=O)NC(=O)[C@H](Cc4ccccc4)NC(=O)[C@H](C)NC(=O)[C@H]([C@@H](C)O)NC(=O)[C@H](CSSC[C@H](NC(=O)[C@H](Cc4ccccc4)NC(=O)[C@H](CO)NC(=O)[C@H](CC(C)C)NC(=O)[C@H](CCCNC(=N)N)NC(=O)[C@H](Cc4ccc(O)cc4)NC(=O)[C@H](CCCCN)NC(=O)[C@H](CCSC)NC(=O)[C@H](Cc4cccc5ccccc45)NC(=O)[C@H](Cc4cnc[nH]4)NC(=O)[C@H](CCCCN)NC3=O)C(=O)N[C@@H](CCCNC(=N)N)C(=O)N[C@@H](CCCCN)C(=O)N[C@@H]([C@@H](C)O)C(=O)N2)NC(=O)[C@H](CCCNC(=N)N)NC(=O)[C@H](CO)NC(=O)[C@H](CCCCN)NC(=O)[C@@H]2CCCN2C(=O)[C@H]([C@@H](C)CC)NC(=O)[C@H]([C@@H](C)O)NC(=O)[C@H](CC(=O)O)NC1=O [[1-Nal20]ShK] | 2.11 | – |
| 20kDaPEG-[-Nal16]ShK (RSCIDTIPKSRCTAFXCKHSMKYRLSFCRKTCGTC; 20 kDa PEG; 1-Nal16; ShK PEGylated toxin peptide analog; PEGylated; 3-(1-naphthyl)alanine) | – | IC50 (hKv1.3; read-out: Kv1.3 (IWQ) IC50 (nM, Avg)): 39.1 nM |
| CC[C@H](C)[C@@H]1NC(=O)[C@@H](NC(=O)[C@H](CO)NC(=O)[C@@H](N)CCCNC(=N)N)CSSC[C@@H](C(=O)O)NC(=O)[C@H](CCC(=O)O)NC(=O)CNC(=O)[C@@H]2CSSC[C@@H]3NC(=O)[C@H](CCC(N)=O)NC(=O)[C@H](Cc4ccccc4)NC(=O)[C@H](C)NC(=O)[C@H]([C@@H](C)O)NC(=O)[C@H](CSSC[C@H](NC(=O)[C@H](Cc4ccccc4)NC(=O)[C@H](CO)NC(=O)[C@H](CC(C)C)NC(=O)[C@H](CCCNC(=N)N)NC(=O)[C@H](Cc4ccc(O)cc4)NC(=O)[C@H](CCCCN)NC(=O)[C@H](CCSC)NC(=O)[C@H](CO)NC(=O)[C@H](Cc4c[nH]cn4)NC(=O)[C@H](CCCCN)NC3=O)C(=O)N[C@@H](CCCNC(=N)N)C(=O)N[C@@H](CCCCN)C(=O)N[C@@H]([C@@H](C)O)C(=O)N2)NC(=O)[C@H](CCCNC(=N)N)NC(=O)[C@H](CO)NC(=O)[C@H](CCCCN)NC(=O)[C@@H]2CCCN2C(=O)[C@H]([C@@H](C)CC)NC(=O)[C@H]([C@@H](C)O)NC(=O)[C@H](CC(=O)O)NC1=O [[Glu34]ShK] | 0.067 | IC50 [1, 3]: 0.123 nM |
| CC[C@H](C)[C@@H]1NC(=O)[C@@H](NC(=O)[C@H](CO)NC(=O)[C@@H](N)CCCNC(=N)N)CSSC[C@@H](C(=O)O)NC(=O)[C@H]([C@@H](C)O)NC(=O)CNC(=O)[C@@H]2CSSC[C@@H]3NC(=O)[C@H](CCC(N)=O)NC(=O)[C@H](Cc4ccccc4)NC(=O)[C@H](C)NC(=O)[C@H]([C@@H](C)O)NC(=O)[C@H](CSSC[C@H](NC(=O)[C@H](Cc4ccccc4)NC(=O)[C@H](CO)NC(=O)[C@H](CC(C)C)NC(=O)[C@H](CCCNC(=N)N)NC(=O)[C@H](Cc4ccc(O)cc4)NC(=O)[C@H](CCCCN)NC(=O)[C@H](CCSC)NC(=O)[C@H](CO)NC(=O)[C@H](Cc4cnc[nH]4)NC(=O)[C@H](CCCCN)NC3=O)C(=O)N[C@@H](CCCNC(=N)N)C(=O)N[C@@H](CCCCN)C(=O)N[C@@H]([C@@H](C)O)C(=O)N2)NC(=O)[C@H](CCCNC(=N)N)NC(=O)[C@H](CO)NC(=O)[C@H](CCCCN)NC(=O)[C@@H]2CCCN2C(=O)[C@H]([C@@H](C)CC)NC(=O)[C@H]([C@@H](C)O)NC(=O)[C@H](CCCCN)NC1=O [[Lys5]ShK] | 3.3 | – |
| CC[C@H](C)[C@@H]1NC(=O)[C@@H](NC(=O)[C@H](CO)NC(=O)[C@@H](N)CCCNC(=N)N)CSSC[C@@H](C(=O)O)NC(=O)[C@H]([C@@H](C)O)NC(=O)CNC(=O)[C@@H]2CSSC[C@@H]3NC(=O)[C@H](CCC(N)=O)NC(=O)[C@H](Cc4ccccc4)NC(=O)[C@H](C)NC(=O)[C@H]([C@@H](C)O)NC(=O)[C@H](CSSC[C@H](NC(=O)[C@H](Cc4ccccc4)NC(=O)[C@H](CO)NC(=O)[C@H](CC(C)C)NC(=O)[C@H](CCCNC(=N)N)NC(=O)[C@H](Cc4ccc(O)cc4)NC(=O)[C@H](CCCCN)NC(=O)[C@H](CCSC)NC(=O)[C@H](CO)NC(=O)[C@H](Cc4c[nH]cn4)NC(=O)[C@H](CCCCN)NC3=O)C(=O)N[C@@H](CCCNC(=N)N)C(=O)N[C@@H](CCCCN)C(=O)N[C@@H]([C@@H](C)O)C(=O)N2)NC(=O)[C@H](CCCNC(=N)N)NC(=O)[C@H](CO)NC(=O)[C@H](CCCCN)NC(=O)[C@@H]2CCCN2C(=O)[C@H]([C@@H](C)CC)NC(=O)[C@H](CCCCN)NC(=O)[C@H](CC(=O)O)NC1=O [[Lys6]ShK] | 0.085 | IC50 ([1]; read-out: WB (IFNg) IC50 (nM, Avg)): 0.21 nM |
| CC[C@H](C)[C@@H]1NC(=O)[C@@H](NC(=O)[C@H](CO)NC(=O)[C@@H](N)CCCNC(=N)N)CSSC[C@@H](C(=O)O)NC(=O)[C@H]([C@@H](C)O)NC(=O)CNC(=O)[C@@H]2CSSC[C@@H]3NC(=O)[C@H](CCC(N)=O)NC(=O)[C@H](Cc4ccccc4)NC(=O)[C@H](C)NC(=O)[C@H]([C@@H](C)O)NC(=O)[C@H](CSSC[C@H](NC(=O)[C@H](Cc4ccccc4)NC(=O)[C@H](CO)NC(=O)[C@H](CC(C)C)NC(=O)[C@H](CCCNC(=N)N)NC(=O)[C@H](Cc4ccc(O)cc4)NC(=O)[C@H](CCCNC(=N)N)NC(=O)[C@H](CCSC)NC(=O)[C@H](CO)NC(=O)[C@H](Cc4cnc[nH]4)NC(=O)[C@H](CCCCN)NC3=O)C(=O)N[C@@H](CCCNC(=N)N)C(=O)N[C@@H](CCCCN)C(=O)N[C@@H]([C@@H](C)O)C(=O)N2)NC(=O)[C@H](CCCNC(=N)N)NC(=O)[C@H](CO)NC(=O)[C@H](CCCCN)NC(=O)[C@@H]2CCCN2C(=O)[C@H]([C@@H](C)CC)NC(=O)[C@H]([C@@H](C)O)NC(=O)[C@H](CC(=O)O)NC1=O [[Arg22]ShK] | 18.7 | – |
